One series has as its system fly heart. The series can be described thus: Drug application to the fly heart, induction of arrhythmias. In kind it is in vivo, Drosophila. To be noted: HERG and KCNQ channels present in fly heart. The source says: According to another embodiment of the invention, methods are provided for testing a compound for cardioactivity comprising: (a) providing a composition comprising an excised, denervated Drosophila heart that retains myogenic activity, and a physiologically acceptable hemolymph fluid in contact with said Drosophila heart; (b) contacting the composition with the compound; and (c) assessing the effect of the compound on the myogenic activity of the semi-intact Drosophila heart. In one such embodiment the method comprises assessing the effect of the compound on myogenic activity of the semi-intact Drosophila heart by producing images of the semi-intact Drosophila heart and analyzing the images. In another such embodiment, the method comprises determining a member of the group consisting of heart period, heart rate, diastolic interval, systolic interval, standard deviation of heart period, standard deviation of heart rate, standard deviation of diastolic interval, standard deviation of systolic interval, percent fractional shortening of heart contraction, arrhythmia index, velocity of heart muscle contraction, and directionality of heart muscle contraction.
These are thought to be due to drug effects on both HERG and KCNQ channels. […] Thus, this system can be used to screen for possible drug side effects.

For the next series, the system named is patients. To be noted: some patients; thought to be due to effects on HERG and KCNQ channels; cited from earlier work.

For the compound `CCCCCCC[N+](CC)(CC)CCCCc1ccc(Cl)cc1` [clofilium], the “induction of arrhythmias in the fly” value in the series with fly heart is “induce arrhythmias in the fly”. The “induction of arrhythmias in patients” value in the series on patients was “induce arrhythmias in some patients”.
With `CCCCCCCN(CC)CCCC(O)c1ccc(NS(C)(=O)=O)cc1` (stereo not shown) [ibutilide], in the series on fly heart, the “induction of arrhythmias in the fly” value is “induce arrhythmias in the fly”. The “induction of arrhythmias in patients” value in the series with patients was “induce arrhythmias in some patients”.

The values are drawn from patent US9186093B2, “Compositions and methods for screening cardioactive drugs” (THE REGENTS OF THE UNIVERSITY OF CALIFORNIA, priority 2008, dated 2015).
